# PubChem BioAssay (NCI)
#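 Step 1: Grow cells in 96-well plates. Step 2: Expose to compound for 48 hours at 5 concentrations. Step 3: Interpolate endpoints linearly; if unreached, use highest concentration. GI50 = concentration required for 50% inhibition of growth. At the TGI there is no net growth.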
# Columns and labels:
# Assay in all cases: inhibition of tumour cell growth, NCI panel, 48 h
# SK-MEL-2 melanoma = system: SK-MEL-2 melanoma
# SN12C renal = system: SN12C renal
# SNB-19 CNS = system: SNB-19 CNS
# HOP-62 NSCLC = system: HOP-62 NSCLC
# MCF7 breast = system: MCF7 breast
# UO-31 renal = system: UO-31 renal
# HS 578T breast = system: HS 578T breast
# BT-549 breast = system: BT-549 breast
# KM12 colon = system: KM12 colon
# UACC-62 melanoma = system: UACC-62 melanoma
# HCT-15 colon = system: HCT-15 colon
# SF-539 CNS = system: SF-539 CNS
# SNB-75 CNS = system: SNB-75 CNS
# CCRF-CEM leukemia = system: CCRF-CEM leukemia
# DU-145 prostate = system: DU-145 prostate
# MDA-MB-231 breast = system: MDA-MB-231 breast
# SF-295 CNS = system: SF-295 CNS
# RPMI-8226 leukemia = system: RPMI-8226 leukemia
# SK-MEL-5 melanoma = system: SK-MEL-5 melanoma
# IGROV1 ovarian = system: IGROV1 ovarian
# MOLT-4 leukemia = system: MOLT-4 leukemia
# OVCAR-4 ovarian = system: OVCAR-4 ovarian
# U251 CNS = system: U251 CNS
# COLO 205 colon = system: COLO 205 colon
# EKVX NSCLC = system: EKVX NSCLC
# SR leukemia = system: SR leukemia
# NCI/ADR-RES ovarian = system: NCI/ADR-RES ovarian
# ACHN renal = system: ACHN renal
# NCI-H460 lung = system: NCI-H460 lung
# T-47D breast = system: T-47D breast
# OVCAR-8 ovarian = system: OVCAR-8 ovarian
# M14 melanoma = system: M14 melanoma
# OVCAR-5 ovarian = system: OVCAR-5 ovarian
# LOX IMVI melanoma = system: LOX IMVI melanoma
# MALME-3M melanoma = system: MALME-3M melanoma
# A498 renal = system: A498 renal
# 786-0 renal = system: 786-0 renal
# NCI-H226 lung = system: NCI-H226 lung
# SK-MEL-28 melanoma = system: SK-MEL-28 melanoma
# OVCAR-3 ovarian = system: OVCAR-3 ovarian
# HCT-116 colon = system: HCT-116 colon
# NCI-H522 lung = system: NCI-H522 lung
# SK-OV-3 ovarian = system: SK-OV-3 ovarian
# A549 NSCLC = system: A549 NSCLC
# HL-60(TB) leukemia = system: HL-60(TB) leukemia
# TK-10 renal = system: TK-10 renal
# HCC-2998 colon = system: HCC-2998 colon
# NCI-H23 lung = system: NCI-H23 lung
# SW-620 colon = system: SW-620 colon
# RXF 393 renal = system: RXF 393 renal
# SF-268 CNS = system: SF-268 CNS
# K-562 leukemia = system: K-562 leukemia
# PC-3 prostate = system: PC-3 prostate
# CAKI-1 renal = system: CAKI-1 renal
# UACC-257 melanoma = system: UACC-257 melanoma
# HT29 colon = system: HT29 colon
# HOP-92 NSCLC = system: HOP-92 NSCLC
smiles,measurement,setting,value
Cc1cc(Cl)cc(NS(=O)(=O)c2ccc(-c3cnc(C4CC4)o3)cc2)c1,GI50,SK-MEL-2 melanoma,1050 nM
same,TGI,SK-MEL-2 melanoma,20900 nM
same,GI50,SN12C renal,986 nM
same,TGI,SN12C renal,13900 nM
same,GI50,SNB-19 CNS,412 nM
same,TGI,SNB-19 CNS,15600 nM
same,GI50,HOP-62 NSCLC,376 nM
same,TGI,HOP-62 NSCLC,16400 nM
same,GI50,MCF7 breast,70.2 nM
same,TGI,MCF7 breast,13800 nM
same,GI50,UO-31 renal,798 nM
same,TGI,UO-31 renal,14800 nM
same,GI50,HS 578T breast,300 nM
same,TGI,HS 578T breast,14100 nM
same,GI50,BT-549 breast,1630 nM
same,TGI,BT-549 breast,16400 nM
same,GI50,KM12 colon,303 nM
same,TGI,KM12 colon,13300 nM
same,GI50,UACC-62 melanoma,174 nM
same,TGI,UACC-62 melanoma,12000 nM
same,GI50,HCT-15 colon,106 nM
same,TGI,HCT-15 colon,12100 nM
same,GI50,SF-539 CNS,270 nM
same,TGI,SF-539 CNS,3200 nM
same,GI50,SNB-75 CNS,128 nM
same,TGI,SNB-75 CNS,1700 nM
same,GI50,CCRF-CEM leukemia,172 nM
same,TGI,CCRF-CEM leukemia,17700 nM
same,GI50,DU-145 prostate,374 nM
same,TGI,DU-145 prostate,15100 nM
same,GI50,MDA-MB-231 breast,656 nM
same,TGI,MDA-MB-231 breast,14500 nM
same,GI50,SF-295 CNS,146 nM
same,TGI,SF-295 CNS,11000 nM
same,GI50,RPMI-8226 leukemia,232 nM
same,TGI,RPMI-8226 leukemia,4750 nM
same,GI50,SK-MEL-5 melanoma,322 nM
same,TGI,SK-MEL-5 melanoma,6980 nM
same,GI50,IGROV1 ovarian,331 nM
same,TGI,IGROV1 ovarian,13500 nM
same,GI50,MOLT-4 leukemia,451 nM
same,TGI,MOLT-4 leukemia,31100 nM
same,GI50,OVCAR-4 ovarian,1070 nM
same,TGI,OVCAR-4 ovarian,19800 nM
same,GI50,U251 CNS,436 nM
same,TGI,U251 CNS,15600 nM
same,GI50,COLO 205 colon,322 nM
same,TGI,COLO 205 colon,2710 nM
same,GI50,EKVX NSCLC,499 nM
same,TGI,EKVX NSCLC,16700 nM
same,GI50,SR leukemia,46.5 nM
same,TGI,SR leukemia,19100 nM
same,GI50,NCI/ADR-RES ovarian,161 nM
same,TGI,NCI/ADR-RES ovarian,8910 nM
same,GI50,ACHN renal,758 nM
same,TGI,ACHN renal,14100 nM
same,GI50,NCI-H460 lung,264 nM
same,TGI,NCI-H460 lung,7220 nM
same,GI50,T-47D breast,379 nM
same,TGI,T-47D breast,26200 nM
same,GI50,OVCAR-8 ovarian,716 nM
same,TGI,OVCAR-8 ovarian,18000 nM
same,GI50,M14 melanoma,351 nM
same,TGI,M14 melanoma,14200 nM
same,GI50,OVCAR-5 ovarian,565 nM
same,TGI,OVCAR-5 ovarian,15500 nM
same,GI50,LOX IMVI melanoma,279 nM
same,TGI,LOX IMVI melanoma,11100 nM
same,GI50,MALME-3M melanoma,712 nM
same,TGI,MALME-3M melanoma,22200 nM
same,GI50,A498 renal,72.6 nM
same,TGI,A498 renal,1280 nM
same,GI50,786-0 renal,1060 nM
same,TGI,786-0 renal,15900 nM
same,GI50,NCI-H226 lung,454 nM
same,TGI,NCI-H226 lung,9890 nM
same,GI50,SK-MEL-28 melanoma,1280 nM
same,TGI,SK-MEL-28 melanoma,19500 nM
same,GI50,OVCAR-3 ovarian,122 nM
same,TGI,OVCAR-3 ovarian,3440 nM
same,GI50,HCT-116 colon,347 nM
same,TGI,HCT-116 colon,11100 nM
same,GI50,NCI-H522 lung,465 nM
same,TGI,NCI-H522 lung,14300 nM
same,GI50,SK-OV-3 ovarian,783 nM
same,TGI,SK-OV-3 ovarian,22600 nM
same,GI50,A549 NSCLC,565 nM
same,TGI,A549 NSCLC,16600 nM
same,GI50,HL-60(TB) leukemia,156 nM
same,TGI,HL-60(TB) leukemia,2570 nM
same,GI50,TK-10 renal,6220 nM
same,TGI,TK-10 renal,23000 nM
same,GI50,HCC-2998 colon,745 nM
same,TGI,HCC-2998 colon,12600 nM
same,GI50,NCI-H23 lung,520 nM
same,TGI,NCI-H23 lung,13800 nM
same,GI50,SW-620 colon,218 nM
same,TGI,SW-620 colon,15500 nM
same,GI50,RXF 393 renal,160 nM
same,TGI,RXF 393 renal,556 nM
same,GI50,SF-268 CNS,1270 nM
same,TGI,SF-268 CNS,16500 nM
same,GI50,K-562 leukemia,51 nM
same,TGI,K-562 leukemia,> 33200 nM
same,GI50,PC-3 prostate,205 nM
same,TGI,PC-3 prostate,11900 nM
same,GI50,CAKI-1 renal,125 nM
same,TGI,CAKI-1 renal,14500 nM
same,GI50,UACC-257 melanoma,3180 nM
same,TGI,UACC-257 melanoma,20800 nM
same,GI50,HT29 colon,313 nM
same,TGI,HT29 colon,12100 nM
same,GI50,HOP-92 NSCLC,151 nM
same,TGI,HOP-92 NSCLC,4280 nM
